What was measured:
TTR = TTR (Homo sapiens, UniProt P02766); experiment: Reversibility of binding assessed with mass spectrometry; settings: mass spectrometry (Figure S3)
wild-type TTR [1] = biological target: T1, wild-type TTR (Homo sapiens, UniProt P02766); experiment: Co-crystallography / X-ray diffraction analysis of TTR·ligand complexes; settings: co-crystal structures
wild-type TTR [2] = biological target: T1, wild-type TTR; experiment: Competitive fluorescence; type: binding; settings: 5 vs 1, 6 vs 2
wild-type TTR [3] = biological target: T1, wild-type TTR; settings: orientation in T4-binding site; cited from earlier work

## OB(O)c1ccc(/C=C/c2ccc(B(O)O)cc2Cl)c(Cl)c1 [Compound 10, 1,1′-(1E)-(1,2-Ethenediyl)bis[2-chloro-4-boronic acid]-benzene]
TTR
  reversibility of binding with TTR: reversible

## OB(O)c1ccc(/C=C/c2cc(O)cc(O)c2)c(Cl)c1 [Compound 4, 5-[(1E)-2-(2-Chloro-4-boronic Acid)ethenyl]-1,3-benzenediol]
wild-type TTR [1]
  covalent interaction / boronic ester formation with binding-pocket residues: did not exhibit covalent interactions

## O=C(O)c1cccc(/C=C/c2ccc(O)cc2)c1 [Compound 5, 3-[(1E)-2-(4-Hydroxyphenyl)ethenyl]-benzoic Acid]
wild-type TTR [2]
  Kd,2 fold higher than those of stilbenes 1 and 2, respectively: 3 fold

## O=C(O)c1ccc2nc(-c3cc(Cl)cc(Cl)c3)oc2c1 [Compound 12, 2-(3,5-dichlorophenyl)-6-benzoxazolecarboxylic acid]
wild-type TTR [3]
  binding mode: forward ^d

## O=C(O)c1cccc(/C=C/c2ccc(B(O)O)cc2Cl)c1 [Compound 8, 3-[(1E)-2-(2-Chloro-4-boronic Acid)ethenyl]-benzoic]
wild-type TTR [1]
  covalent interaction / boronic ester formation with binding-pocket residues: did not exhibit covalent interactions

## OB(O)c1ccc(/C=C/c2cc(O)cc(O)c2)cc1 [Compound 2, 5-[(1E)-2-(4-Boronic acid)ethenyl]-1,3-benzenediol]
wild-type TTR [1]
  covalent interaction / boronic ester formation with binding-pocket residues: did not exhibit covalent interactions

## O=C(O)c1cccc(/C=C/c2ccc(B(O)O)cc2)c1 [Compound 6, 3-[(1E)-2-(4-Boronic acid)ethenyl]-benzoic Acid]
wild-type TTR [1]
  covalent interaction / boronic ester formation with binding-pocket residues: did not exhibit covalent interactions
wild-type TTR [2]
  Kd,2 fold higher than those of stilbenes 1 and 2, respectively: 2 fold
